Test results published in patent US8648201B2, “Aminopyridine derivatives for treating tumors and inflammatory diseases” (MERCK PATENT GmbH, priority 2009, dated 2014).

Key:
IRAK-4 = molecular target: T1, IRAK-4 (Homo sapiens, UniProt Q9NWZ3); assay: Test for the inhibition of IRAK4 (flashplate, 33P-ATP); type: biochemical; settings: enzyme
T1 construct: His6 (N); Dr.Jaekel
T1 sequence (Q9NWZ3 1-460): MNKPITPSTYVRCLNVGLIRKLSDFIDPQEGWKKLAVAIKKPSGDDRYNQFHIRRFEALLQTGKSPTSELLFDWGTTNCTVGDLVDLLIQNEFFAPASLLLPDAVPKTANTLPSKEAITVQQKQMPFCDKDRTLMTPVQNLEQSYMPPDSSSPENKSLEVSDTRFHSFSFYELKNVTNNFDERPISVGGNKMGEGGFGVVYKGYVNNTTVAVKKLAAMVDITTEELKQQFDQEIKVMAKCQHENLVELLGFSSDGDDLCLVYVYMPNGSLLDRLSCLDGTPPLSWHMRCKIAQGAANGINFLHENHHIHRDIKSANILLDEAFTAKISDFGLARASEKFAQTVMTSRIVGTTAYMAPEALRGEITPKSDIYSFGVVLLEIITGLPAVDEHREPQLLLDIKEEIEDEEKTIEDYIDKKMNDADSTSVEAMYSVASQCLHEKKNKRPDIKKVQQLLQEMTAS
Summary of the method: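 His6-IRAK4 (7.3 nM) with biotinylated STK substrate 1 peptide (300 nM) and 10 μM ATP spiked with ^33P-ATP, incubated 180 min at 22° C. Incorporated radioactivity counted; blank from 1 μM staurosporine subtracted, activity expressed as % of no-compound control, IC50 by statistical fit.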

PDK1 = molecular target: T2, PDK1 (Homo sapiens, UniProt O15530); assay: Test for the inhibition of PDK1 (flashplate, 33P-ATP); type: biochemical; settings: enzyme
T2 construct: His6 (N)
T2 sequence (O15530 51-556 limits assumed): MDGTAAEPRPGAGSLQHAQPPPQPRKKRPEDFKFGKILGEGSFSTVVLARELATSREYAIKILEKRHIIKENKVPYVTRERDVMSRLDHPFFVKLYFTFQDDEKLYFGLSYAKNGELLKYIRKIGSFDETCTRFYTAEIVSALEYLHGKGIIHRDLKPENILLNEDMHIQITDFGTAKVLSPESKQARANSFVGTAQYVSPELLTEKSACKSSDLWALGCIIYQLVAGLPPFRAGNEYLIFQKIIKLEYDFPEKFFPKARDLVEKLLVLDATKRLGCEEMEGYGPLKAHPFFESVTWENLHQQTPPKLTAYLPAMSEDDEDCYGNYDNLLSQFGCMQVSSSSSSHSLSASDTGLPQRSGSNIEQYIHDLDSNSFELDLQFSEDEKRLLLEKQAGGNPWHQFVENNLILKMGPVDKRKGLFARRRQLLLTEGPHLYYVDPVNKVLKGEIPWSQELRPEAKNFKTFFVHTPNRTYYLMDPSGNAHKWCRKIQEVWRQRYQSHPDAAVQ
Summary of the method: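 His6-PDK1(1-50) (3.4 nM) incubated with biotinylated peptide substrate (400 nM), 4 μM ATP plus 33P-ATP and compound, 60 min at 30 °C. Incorporated radioactivity counted; blank with 100 nM staurosporine subtracted, activity as % of compound-free control. IC50 from dose series.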

| SMILES | IC50 (IRAK-4) | IC50 (PDK1) |
| --- | --- | --- |
| CC1CC(=O)NN=C1c1ccc2nc(-c3cc(-c4cnn(C)c4)cnc3N)[nH]c2c1 (racemic) [Compound A1, 6-{2-[2-amino-5-(1-methyl-1H-pyrazol-4-yl)pyridin-3-yl]-3H-benzimidazol-5-yl}-5-methyl-4,5-dihydro-2H-pyridazin-3-one] | > 10000 nM | 1 to 100 nM |
| COc1ccc2nc(-c3cc(-c4cnn(C)c4)cnc3N)[nH]c2c1 [Compound A43] | 100 to 10000 nM | 1 to 100 nM |
| COc1ccc2nc(-c3cc(-c4ccsc4)cnc3N)[nH]c2c1 [Compound A144, 3-(6-methoxy-1H-benzimidazol-2-yl)-5-thiophen-3-ylpyridin-2-ylamine] | 100 to 10000 nM | 1 to 100 nM |
| Cn1cc(-c2cnc(N)c(-c3nc4cccc(CO)c4[nH]3)c2)cn1 [Compound A52] | 100 to 10000 nM | 1 to 100 nM |
| COc1ccc2nc(-c3cc(-c4ccc(C(=O)NC5CCN(C)CC5)s4)cnc3N)[nH]c2c1 [Compound A133, N-(1-Methylpiperidin-4-yl)-5-[6-amino-5-(6-methoxy-1H-benzimidazol-2-yl)pyridin-3-yl]thiophene-2-carboxamide] | 1 to 100 nM | 1 to 100 nM |
| COc1ccc2nc(-c3cc(-c4cnn(C5CCNCC5)c4)cnc3N)[nH]c2c1 [Compound A92, 3-(6-Methoxy-1H-benzimidazol-2-yl)-5-(1-piperidin-4-yl-1H-pyrazol-4-yl)pyridin-2-ylamine] | 1 to 100 nM | 1 to 100 nM |
| Cn1cc(-c2cnc(N)c(-c3nc4ccc(C(=O)NCCc5ccc(F)c(F)c5)cc4[nH]3)c2)cn1 [Compound A128, N-[2-(3,4-difluorophenyl)ethyl]-2-[2-amino-5-(1-methyl-1H-pyrazol-4-yl)pyridin-3-yl]-3H-benzimidazole-5-carboxamide] | 100 to 10000 nM | 1 to 100 nM |
